# In patent US10596127B2, “Composition for reducing the frequency of urination, method of making and use thereof” (WELLESLEY PHARMACEUTICALS, LLC, priority 2013, dated 2020):
# Tests used:
# [1] = system: TNFα secretion by normal human bladder smooth muscle cells; assay: TNFα ELISA of normal human bladder smooth muscle cell supernatants; format: cell-based; details: no analgesic
# Experimental: (§1) Culture supernatants were subjected to cytokine-specific ELISA to determine IL-1β, IL-6 and TNF-α responses in cultures of macrophages treated with analgesic, LPS alone or a combination of LPS and analgesic. The assays were performed on Nunc MaxiSorp Immunoplates (Nunc) coated overnight with 100 μl of anti-mouse IL-6, TNF-α mAbs (BD Biosciences) or IL-1β mAb (R&D Systems) in 0.1 M sodium bicarbonate buffer (pH 9.5). After two washes with PBS (200 μl per well), 200 μl of PBS 3% BSA were added in each well (blocking) and the plates incubated for 2 hours at room temperature. Plates were washed again two times by addition of 200 μl per well, 100 μl of cytokine standards and serial dilutions of culture supernatants were added in duplicate and the plates were incubated overnight at 4° C. Finally, the plates were washed twice and incubated with 100 μl of secondary biotinylated anti-mouse IL-6, TNFα mAbs (BD Biosciences) or IL-1β (R&D Systems) followed by peroxidase-labelled goat anti-biotin mAb (Vector Laboratories). The colorimetric reaction was developed by the addition of 2,2′-azino-bis(3)-ethylbenzylthiazoline-6-sulfonic acid (ABTS) substrate and H2O2 (Sigma) and the absorbance measured at 415 nm with a Victor® V multilabel plate reader (PerkinElmer).
# (§2) Normal human bladder smooth muscle cells were isolated by enzymatic digestion from macroscopically normal pieces of human bladder. Cells were expended in vitro by culture at 37° C. in a 5% CO2 atmosphere in RPMI 1640 supplemented with 10% fetal bovine serum, 15 mM HEPES, 2 mM L-glutamine, 100 U/ml penicillin, and […] of streptomycin and passage once a week by treatment with trypsin to detach cells followed by reseeding in a new culture flask. The first week of culture, the culture medium was supplemented with 0.5 ng/ml epidermal growth factor, 2 ng/ml fibroblast growth factor, and 5 μg/ml insulin.
# (§3) Bladder smooth muscle cells trypsinized and seeded in microculture plates at a cell density of 3×10^4 cells per well in 100 μl were treated with analgesic solutions (50 μl/well) either alone or together carbachol (10-Molar, 50 μl/well), as an example of non-inflammatory stimuli, or lipopolysaccharide (LPS) of Salmonella typhimurium (1 μg/ml, 50 μl/well), as an example of […] stimuli. When no other effectors were added to the cells, 50 μl of RPMI 1640 without fetal bovine serum were added to the wells to adjust the final volume to 200 μl.
# (§4) After 24 hours of culture, 150 μl of culture supernatants were collected, spun down for 2 min at 8,000 rpm at 4° C. to remove cells and debris and stored at −70° C. for analysis of Prostaglandin E2 (PGE2) responses by ELISA. Cells were fixed, permeabilized and blocked for detection of COX2 using a fluorogenic substrate. In selected experiment cells were stimulated 12 hours in vitro for analysis of COX2, PGE2 and cytokine responses.
# (§5) COX2 and PGE2 responses were analyzed as described in Example 3. Cytokine responses were analyzed as described in Example 2.
# [2] = system: TNFα secretion by normal human bladder smooth muscle cells; assay: as above; format: cell-based; details: stimulus alone, no analgesic (Carbachol 10^−3 M; LPS 10 μg/ml); unstimulated <5
# [3] = system: IL-6 secretion by normal human bladder smooth muscle cells; assay: IL-6 ELISA of normal human bladder smooth muscle cell supernatants; format: cell-based; details: no analgesic
# Experimental: as §1, §2, §3, §4, §5
# [4] = system: COX2 expression by normal human bladder smooth muscle cells; assay: Cell-based ELISA of total COX2 in normal human bladder smooth muscle cells
# Experimental: COX2 responses were analyzed by a Cell-Based ELISA using Human/mouse total COX2 immunoassay (R&D Systems), following the instructions of the manufacturer. Briefly, after cells fixation and permeabilization, a mouse anti-total COX2 and a rabbit anti-total GAPDH were added to the wells of the clear-bottom black 96-well cell culture microculture plates. After incubation and washes, an HRP-conjugated anti-mouse IgG and an AP-conjugated anti-rabbit IgG were added to the wells. Following another incubation and set of washes, the HRP- and AP-fluorogenic substrates were added. Finally, a Victor® V multilabel plate reader (PerkinElmer) was used to read the fluorescence emitted at 600 nm (COX2 fluorescence) and 450 nm (GAPDH fluorescence). Results are expressed as relative levels of total COX2 as determined by relative fluorescence unit (RFUs) and normalized to the housekeeping protein GAPDH.
# as §2
# (§6) […] When no other effectors were added to the cells, 50 μl of RPMI 1640 without fetal bovine serum were added to the wells to adjust the final volume to 200 μl.
# as §4, §5
# [5] = system: expression of co-stimulatory molecules by Raw 264 macrophage cells; assay: Flow cytometry of co-stimulatory molecules CD40 and CD80 on macrophages treated with analgesic, with or without LPS; format: cell-based, Murine; details: LPS 5 ng/ml alone, no analgesic; negative control 20.6
# Experimental: Murine RAW264.7 or J774 macrophage cells (obtained from ATCC) were used in this study. Cells were maintained in a culture medium containing RPMI 1640 supplemented with 10% fetal bovine serum (FBS), 15 mM HEPES, 2 mM L-glutamine, 100 U/ml penicillin, and 100 μg/ml of streptomycin. Cells were cultured at 37° C. in a 5% CO2 atmosphere and split (passages) once a week.
# RAW264.7 macrophage cells were seeded in 96-well plates at a cell density of 1.5×10^5 cells per well in 100 μl of the culture medium. […] Briefly, the analgesics were dissolved in FBS-free culture medium (i.e., RPMI 1640 supplemented with 15 mM HEPES, 2 mM L-glutamine, 100 U/ml penicillin, and 100 μg/ml of streptomycin), and diluted to desired concentrations by serial dilution with the same medium. For cells treated with analgesic in the absence of LPS, 50 μl of analgesic solution and 50 μl of FBS-free culture medium were added to each well. For cells treated with analgesic in the presence of LPS, 50 μl of analgesic solution and 50 μl of LPS (from Salmonella typhimurium) in FBS-free culture medium were added to each well. All conditions were tested in duplicates.
# After 24 or 48 hours of culture, 150 μl of culture supernatants were collected, spun down for 2 min at 8,000 rpm at 4° C. to remove cells and debris and stored at −70° C. for analysis of cytokine responses by ELISA. The cells were collected and washed by centrifugation (5 min at 1,500 rpm at 4° C.) in 500 μl of Phosphate buffer (PBS). Half of the cells were then snap frozen in liquid nitrogen and stored at −70° C. The remaining cells were stained with fluorescent monoclonal antibodies and analyzed by flow cytometry.
# For flow cytometry analysis, macrophages were diluted in 100 μl of FACS buffer (phosphate buffered saline (PBS) with 2% bovine serum albumin (BSA) and 0.01% NaN3) and stained 30 min at 4° C. by addition of FITC-conjugated anti-CD40, PE-conjugated anti-CD80, PE-conjugated anti-CD86 antibody, anti MHC class II (I-A^d) PE (BD Bioscience). Cells were then washed by centrifugation (5 min at 1,500 rpm at 4° C.) in 300 μl of FACS buffer. After a second wash, cells were re-suspended in 200 μl of FACS buffer and the percentage of cells expressing a given marker (single positive), or a combination of markers (double positive) were analyzed with the aid of an Accuri C6 flow cytometer (BD Biosciences).
# [6] = system: IL-6 secretion by normal human bladder smooth muscle cells; assay: IL-6 ELISA of normal human bladder smooth muscle cell supernatants; format: cell-based; details: stimulus alone, no analgesic (Carbachol 10^−3 M; LPS 10 μg/ml); unstimulated <5
# [7] = system: PGE2 secretion by normal human bladder smooth muscle cells; assay: PGE2 ELISA of normal human bladder smooth muscle cell supernatants; format: cell-based
# Experimental: Prostaglandin E2 responses were analyzed by a sequential competitive ELISA (R&D Systems). More specifically, culture supernatants or PGE2 standards were added to the wells of a 96-well polystyrene microplate coated with a goat anti-mouse polyclonal antibody. After one hour incubation on a microplate shaker, an HRP-conjugated PGE2 was added and plates incubated for an additional two hours at room temperature. The plates were then washed and HRP substrate solution added to each well. The color was allowed to develop for 30 min and the reaction stopped by addition sulfuric acid before reading the plate at 450 nm with wavelength correction at 570 nm. Results are expressed as mean pg/ml of PGE2.
# as §2, §6, §4, §5
# [8] = stimulus alone, no analgesic (Carbachol 10^−3 M; LPS 10 μg/ml), unstimulated <20.5
substance,measurement,setting,value
lipopolysaccharide [LPS],TNFα responses to stimulus alone,[1],massive induction
same,TNFα (pg/ml) Subject 1,[2],5725 pg/mL
same,TNFα (pg/ml) Subject 2,[2],4107 pg/mL
same,IL-6 responses to stimulus alone,[3],massive induction
same,COX2 responses to stimulus alone,[4]; no analgesic,higher levels of COX2 responses
same,Total COX2 levels (Normalized RFUs) subject 2,"[4]; stimulus alone, no analgesic (Carbachol 10^−3 M; LPS 10 μg/ml), unstimulated 199",633 Normalized RFUs
same,Total COX2 levels (Normalized RFUs) subject 1,"[4]; stimulus alone, no analgesic (Carbachol 10^−3 M; LPS 10 μg/ml), unstimulated 230",672 Normalized RFUs
same,% Positive CD40+CD80+,[5],77.8%
same,IL-6 (pg/ml) Subject 1,[6],4838 pg/mL
same,IL-6 (pg/ml) Subject 2,[6],4383 pg/mL
same,PGE2 production in response to stimulus alone,[7]; no analgesic,induced production of PGE2
same,PGE2 levels (pg/ml) Subject 1,[7]; [8],1125 pg/mL
same,PGE2 levels (pg/ml) Subject 2,[7]; [8],998 pg/mL
